{"source": "patent US8715761B2", "about": "“Flavor molecules” (Givaudan S.A., priority 2008, dated 2014)", "assay_type_in_all_cases": "in vivo", "key": {"[1]": {"assay": "Taste testing in water by a panel of experienced tasters", "source_text": "The taste testing was made by a panel of experienced tasters."}, "[2]": {"assay": "Isointensity (R-index) of 20 ppm Compound 13 in water, alone and with 7% sucrose, versus sucrose solutions", "source_text": "The sweet enhancement effect of Compound 13 is illustrated in the following tables: the isointensity of Compound 13 at 20 ppm equals 0.5% sucrose. The isointensity of 7% sucrose with 20 ppm 1-(2-hydroxyphenyl)-3-(pyridin-4-yl)propan-1-one is 8% sucrose. Therefore, the perceived enhancement of sucrose is about 0.5% sucrose (8%-7.5%). This sweet enhancement effect is also observed with consumable products containing other natural and artificial sweeteners, for example, carbohydrates; sucrose, lactose, D-glucose, D-tagatose, D-fructose whether naturally- or synthetically-produced, erythritol, threitol, arabitol, ribitol, xylitol, sorbitol, mannitol, maltitol, isomaltitol, dulcitol, and lactitol, thaumatin, glycin, D-phenylalanine, D-tryptophan, sodium cyclamate, acesulfam K, neohesperidine dihydrochalcone, sodium salt of saccharin, aspartame, superaspartame, neotam, alitam, sucralose, and stevioside."}, "[3]": {"assay": "Flavorist evaluation of how Compound 13 modifies a flavor in water and in application", "source_text": "Evaluation Data on the Compound of Example 13, showing how it Modifies a Flavor in Water and in Application.\nStrawberry A=candy strawberry. Strawberry B=green strawberry. Strawberry C=floral strawberry. Strawberry D=fruity strawberry."}, "[4]": {"assay": "Sweetness in plain non-fat yoghurt by a trained panel", "conditions": "5% sugar and 25 ppm of the compound in plain non-fat yoghurt", "protocol": "5% sugar and 25 ppm of the compound were added to plain non-fat yoghurt. A trained panel compared this to a series of plain non-fat yoghurts to which 5%, 6% 7% and 8% sugar had been added."}, "[5]": {"assay": "Sweet isointensity against sugar solutions by a testing panel", "protocol": "The sweet isointensity was tested against a variety of sugar solutions by a testing panel."}, "[6]": {"conditions": "7% sucrose + 20 ppm Cmpd 13 in water vs. 7% sucrose"}, "[7]": {"conditions": "7% sucrose + 20 ppm Cmpd 13 in water vs. 8% sucrose"}, "[8]": {"conditions": "7% sucrose + 20 ppm Cmpd 13 in water vs. 9% sucrose"}, "[9]": {"conditions": "7% sucrose + 20 ppm Cmpd 13 in water vs. 10% sucrose"}, "[10]": {"conditions": "20 ppm Compound 13 in water vs. 0.5% sucrose"}, "[11]": {"conditions": "20 ppm Compound 13 in water vs. 1% sucrose"}}}
{"smiles": "COc1ccc(CCC(=O)c2ccccc2O)cn1", "note": "[Example 1, 1-(2-hydroxyphenyl)-3-(6-methoxypyridin-3-yl)propan-1-one]", "values": [{"measurement": "Taste results in water", "setting": "[1]; 5 ppm", "result": "very weak sweet"}, {"measurement": "Taste results in water", "setting": "[1]; 20 ppm", "result": "weakly sweet"}, {"measurement": "Taste results in water", "setting": "[1]; 100 ppm", "result": "very strong sweet, weak bitter taste"}]}
{"smiles": "COc1cccc(CCC(=O)c2ccccc2O)n1", "note": "[Example 2, 1-(2-hydroxyphenyl)-3-(6-methoxypyridin-2-yl) propan-1-one]", "values": [{"measurement": "Taste results in water", "setting": "[1]; 10 ppm", "result": "Slightly sweet/bitter"}, {"measurement": "Taste results in water", "setting": "[1]; 100 ppm", "result": "sweet, bitter, slight fruity"}]}
{"smiles": "COc1ncccc1CCC(=O)c1ccccc1O", "note": "[Example 3, 1-(2-hydroxyphenyl)-3-(2-methoxypyridin-3-yl)propan-1-one]", "values": [{"measurement": "Taste results in water", "setting": "[1]; 1 ppm", "result": "Very weak sweet"}, {"measurement": "Taste results in water", "setting": "[1]; 10 ppm", "result": "Very weak sweet"}, {"measurement": "Taste results in water", "setting": "[1]; 50 ppm", "result": "bitter, weakly sweet and burning"}]}
{"smiles": "Cc1ncsc1CCC(=O)c1ccccc1O", "note": "[Example 4, 1-(2-hydroxyphenyl)-3-(4-methylthiazol-5-yl)propan-1-one]", "values": [{"measurement": "Taste results in water", "setting": "[1]; 0.1 to 1 ppm", "result": "petroleum, sulfur"}, {"measurement": "Taste results in water", "setting": "[1]; 10 ppm", "result": "very weak sweet, brothy"}, {"measurement": "Taste results in water", "setting": "[1]; 100 ppm", "result": "sweet, brothy, gassy, bitter, linger"}]}
{"smiles": "Cc1cc(CCC(=O)c2ccccc2O)no1", "note": "[Example 6, 1-(2-hydroxyphenyl)-3-(5-methylisoxazol-3-yl)propan-1-one]", "values": [{"measurement": "Taste results in water", "setting": "[1]; 0.1 ppm", "result": "slightly bitter"}, {"measurement": "Taste results in water", "setting": "[1]; 1 ppm", "result": "slightly bitter, weakly sweet"}, {"measurement": "Taste results in water", "setting": "[1]; 10 ppm", "result": "brothy, umami, soapy, irritating, garlic"}, {"measurement": "Taste results in water", "setting": "[1]; 100 ppm", "result": "umami, bitter, soapy, garlic"}]}
{"smiles": "O=C(CCc1cccnc1)c1ccccc1O", "note": "[Example 7, 1-(2-hydroxyphenyl)-3-(pyridin-3-yl)propan-1-one]", "values": [{"measurement": "Taste results in water", "setting": "[1]; 0.1 ppm", "result": "nothing"}, {"measurement": "Taste results in water", "setting": "[1]; 1 ppm", "result": "very weak sweet, astringent"}, {"measurement": "Taste results in water", "setting": "[1]; 10 ppm", "result": "waxy, delayed sweet, astringent"}, {"measurement": "Taste results in water", "setting": "[1]; 100 ppm", "result": "weak sweet, chemical, bitter"}]}
{"smiles": "O=C(CCc1ccco1)c1ccccc1O", "note": "[Example 8, 3-(furan-2-yl)-1-(2-hydroxyphenyl)propan-1-one]", "values": [{"measurement": "Taste results in water", "setting": "[1]; 0.01 ppm", "result": "nothing"}, {"measurement": "Taste results in water", "setting": "[1]; 0.1 ppm", "result": "soap, delayed sweet"}, {"measurement": "Taste results in water", "setting": "[1]; 1 ppm", "result": "soap, umami, bitter"}, {"measurement": "Taste results in water", "setting": "[1]; 10 ppm", "result": "licorice aroma, soapy, weak sweet, bitter, vegetable, terpen"}, {"measurement": "Taste results in water", "setting": "[1]; 100 ppm", "result": "bitter, licorice aroma, weak sweet, celery, umami, brothy"}]}
{"smiles": "Cc1csc(CCC(=O)c2ccccc2O)n1", "note": "[Example 11, 1-(2-hydroxyphenyl)-3-(4-methylthiazol-2-yl)propan-1-one]", "values": [{"measurement": "Taste results in water", "setting": "[1]; 0.01 ppm", "result": "nothing"}, {"measurement": "Taste results in water", "setting": "[1]; 0.1 ppm", "result": "very weak bitter"}, {"measurement": "Taste results in water", "setting": "[1]; 1 ppm", "result": "astringent, bitter"}, {"measurement": "Taste results in water", "setting": "[1]; 10 ppm", "result": "bitter, astringent"}, {"measurement": "Taste results in water", "setting": "[1]; 100 ppm", "result": "bitter, terpen, weak sweet"}]}
{"smiles": "O=C(CCc1ccccn1)c1ccccc1O", "note": "[Example 12, 1-(2-hydroxyphenyl)-3-(pyridin-2-yl)propan-1-one]", "values": [{"measurement": "Taste results in water", "setting": "[1]; 1 ppm", "result": "umami"}, {"measurement": "Taste results in water", "setting": "[1]; 10 ppm", "result": "high umami like taste"}, {"measurement": "Taste results in water", "setting": "[1]; 100 ppm", "result": "strong umami, slightly bitter"}]}
{"smiles": "O=C(CCc1ccncc1)c1ccccc1O", "note": "[Example 13, 1-(2-hydroxyphenyl)-3-(pyridin-4-yl)propan-1-one]", "values": [{"measurement": "R-index", "setting": "[2]; [6]", "result": 66, "unit": "%"}, {"measurement": "sample sweetness", "setting": "[2]; [6]", "result": "sweeter"}, {"measurement": "R-index", "setting": "[2]; [7]", "result": 43, "unit": "%"}, {"measurement": "sample sweetness", "setting": "[2]; [7]", "result": "isosweet"}, {"measurement": "R-index", "setting": "[2]; [8]", "result": 8, "unit": "%"}, {"measurement": "sample sweetness", "setting": "[2]; [8]", "result": "less"}, {"measurement": "R-index", "setting": "[2]; [9]", "result": 4, "unit": "%"}, {"measurement": "sample sweetness", "setting": "[2]; [9]", "result": "less"}, {"measurement": "isointensity", "setting": "[2]; 7% sucrose with 20 ppm compound", "result": 8, "unit": "% sucrose"}, {"measurement": "R-index", "setting": "[2]; [10]", "result": 61, "unit": "%"}, {"measurement": "sample sweetness", "setting": "[2]; [10]", "result": "isosweet"}, {"measurement": "R-index", "setting": "[2]; [11]", "result": 14, "unit": "%"}, {"measurement": "sample sweetness", "setting": "[2]; [11]", "result": "less sweet"}, {"measurement": "perceived enhancement of sucrose", "setting": "[2]; 20 ppm in 7% sucrose (8%-7.5%)", "result": "about 0.5 % sucrose"}, {"measurement": "isointensity", "setting": "[2]; 20 ppm in water", "result": 0.5, "unit": "% sucrose"}, {"measurement": "Flavorist Evaluation", "setting": "[3]; 2% milk, 20 ppm compound 13", "result": "Slight change in profile, Sweeter than control"}, {"measurement": "Flavorist Evaluation", "setting": "[3]; Cereal, 50% reduced sugar + 20 ppm of compound 13", "result": "Not lingering, more brown notes, roasted,"}, {"measurement": "Flavorist Evaluation", "setting": "[3]; Cereal, 50% reduced sugar + 20 ppm of compound 13 + 100 ppm of Sweet Flavor B", "result": "Nice, works well, more close to sugar taste,"}, {"measurement": "Flavorist Evaluation", "setting": "[3]; Cereal, 50% reduced sugar + 50 ppm of compound 13", "result": "Sweeter than 50% reduced control, better"}, {"measurement": "Flavorist Evaluation", "setting": "[3]; Strawberry yoghurt, 3% fat, 7% sugar, Strawberry flavour D @ 0.1% + 10 ppm of compound 13", "result": "Fruity, slightly fermented, caramellic, green"}, {"measurement": "Flavorist Evaluation", "setting": "[3]; Strawberry yoghurt, 3% fat, 7% sugar, Strawberry flavour D @ 0.1% + 25 ppm of compound 13", "result": "Fruity, sweet, fermented, caramellic, apple like"}, {"measurement": "Flavorist Evaluation", "setting": "[3]; Strawberry yoghurt, 3% fat, 7% sugar, Strawberry flavour D @ 0.1% + 50 ppm of compound 13", "result": "Fermented, sweet, brown, caramellic, overripe"}, {"measurement": "Flavorist Evaluation", "setting": "[3]; Vanilla ice cream, 8% vegetable fat, Vanilla flavour A @ 0.5% + 10 ppm of compound 13", "result": "creamy, vanillic, sweet, slightly cooked"}, {"measurement": "Flavorist Evaluation", "setting": "[3]; Vanilla ice cream, 8% vegetable fat, Vanilla flavour A @ 0.5% + 15 ppm of compound 13", "result": "creamy, sweet, vanillic, lingering sweet vanilla"}, {"measurement": "Flavorist Evaluation", "setting": "[3]; Vanilla ice cream, 8% vegetable fat, Vanilla flavour A @ 0.5% + 30 ppm of compound 13", "result": "sweet, vanillic, lingering sweet vanilla"}, {"measurement": "Flavorist Evaluation", "setting": "[3]; Water, 7% sugar + 20 ppm of compound 13", "result": "Sweeter than 7% sugar, little floral, fuller, slight"}, {"measurement": "Flavorist Evaluation", "setting": "[3]; Water, 7% sugar + 50 ppm of compound 13", "result": "Sweeter than above, very close to 9% sugar-"}, {"measurement": "Flavorist Evaluation", "setting": "[3]; Water, 7% sugar with 0.105% Citric acid + 20 ppm of compound 13", "result": "Sweeter than control, not effecting acidity,"}, {"measurement": "Flavorist Evaluation", "setting": "[3]; Water, 7% sugar with 0.105% Citric acid + 50 ppm of compound 13", "result": "Sweeter than sample at 20 ppm, musty, clean,"}, {"measurement": "Flavorist Evaluation", "setting": "[3]; Water, Strawberry A @ 0.2% + 20 ppm compound 13", "result": "Green character remains but softer, sweeter"}, {"measurement": "Flavorist Evaluation", "setting": "[3]; Water, Strawberry B @ 0.2% + 20 ppm compound 13", "result": "Sweeter, less green, jammer, maltol-like note,"}, {"measurement": "Flavorist Evaluation", "setting": "[3]; Water, Strawberry C @ 0.2% + 20 ppm compound 13", "result": "Less green, less floral, burnt sugar caramel"}, {"measurement": "Flavorist Evaluation", "setting": "[3]; Water, Sweetness Improver Flavor A + 5 ppm compound 13 in 25% sugar reduction Grape Type Drink", "result": "Sweet grape character with the acidic middle"}, {"measurement": "Taste results in water", "setting": "[1]; 0.01 ppm to 0.1 ppm", "result": "nothing"}, {"measurement": "Taste results in water", "setting": "[1]; 1 ppm", "result": "weak sweet"}, {"measurement": "Taste results in water", "setting": "[1]; 10 ppm", "result": "sweet"}, {"measurement": "Taste results in water", "setting": "[1]; 100 ppm", "result": "very sweet, licorice linger"}]}
{"smiles": "O=C(CCc1nccs1)c1ccccc1O", "note": "[Example 15, 1-(2-hydroxyphenyl)-3-(thiazol-2-yl)propan-1-one]", "values": [{"measurement": "Taste results in water", "setting": "[1]; 0.01 ppm", "result": "delayed umami aftertaste"}, {"measurement": "Taste results in water", "setting": "[1]; 0.1 ppm", "result": "delayed umami aftertaste"}, {"measurement": "Taste results in water", "setting": "[1]; 1 ppm", "result": "weak plastic, soap, umami, astringent"}, {"measurement": "Taste results in water", "setting": "[1]; 10 ppm", "result": "astringent. strong umami, weak soap, slight bitter"}, {"measurement": "Taste results in water", "setting": "[1]; 100 ppm", "result": "bitter. umami"}]}
{"smiles": "COc1ccc(CCC(=O)c2ccc(O)cc2O)cn1", "note": "[Example 18]", "values": [{"measurement": "Taste results in water", "setting": "[1]; 100 ppm", "result": "100 ppm, sweet"}]}
{"smiles": "Cl.O=C(CCc1ccncc1)c1ccccc1O", "note": "[Example 21, 4-(3-(2-hydroxyphenyl)-3-oxopropyl)pyridinium chloride]", "values": [{"measurement": "isosweet to", "setting": "[4]", "result": 6.5, "unit": "% sugar"}, {"measurement": "sweet isointensity (isosweet to)", "setting": "[5]; 30 ppm", "result": 0.75, "unit": "% sucrose"}, {"measurement": "sweetness equivalent", "setting": "[5]; 30 ppm of the compound + 7% sucrose", "result": 8.5, "unit": "% sucrose"}, {"measurement": "sweet isointensity (isosweet to)", "setting": "[5]; 35 ppm", "result": 1.0, "unit": "% sucrose"}, {"measurement": "sweet isointensity (isosweet to)", "setting": "[5]; 40 ppm", "result": 1.25, "unit": "% sucrose"}]}
